Experimental data taken from US9765068B2, “PRMT5 inhibitors and uses thereof” (Epizyme, Inc., priority 2012, dated 2017).

These compounds were tested against PRMT5/MEP50 (Homo sapiens (Human), UniProt O14744) (assay: PRMT5 Biochemical Assay (PRMT5/MEP50 enzyme assay on peptide substrate, 3H-SAM Flashplate)). Conditions: PRMT5/MEP50 4 nM, 3H-SAM 75 nM, peptide 40 nM.
Excerpt: General Materials. S-adenosylmethionine (SAM), S-adenosylhomocysteine (SAH), bicine, KCl, Tween20, dimethylsulfoxide (DMSO), bovine skin gelatin (BSG), and Tris(2-carboxyethyl)phosphine hydrochloride solution (TCEP) were purchased from Sigma-Aldrich at the highest level of purity possible. ^3H-SAM was purchase from American Radiolabeled Chemicals with a specific activity of 80 Ci/mmol. 384-well streptavidin Flashplates were purchased from PerkinElmer.
Substrates. Peptide representative of human histone H4 residues 1-15 was synthesized with a C-terminal linker-affinity tag motif and a C-terminal amide cap by 21st Century Biochemicals. […] The sequence was Ac-[…][K-Biot]-amide (SEQ ID NO.:3).
Full-length human MEP50 (NM_024102) clone was amplified from a human testis cDNA library incorporating a 5′ sequence encoding a 6-histidine tag (MHHHHHH) (SEQ ID NO.:5) fused directly to Arg 2 of MEP50. The amplified genes were sublconed into pENTR/D/TEV (Life Technologies) and subsequently transferred by Gateway™ attL×attR recombination to pDEST8 baculvirus expression vector (Life Technologies).
Protein Expression. Recombinant baculovirus and Baculovirus-Infected Insect Cells (BIIC) were generated according to Bac-to-Bac kit instructions (Life Technologies) and Wasilko, 2006, respectively. Protein over-expression was accomplished by infecting exponentially growing Spodoptera frugiperda (SF9) cell culture at 1.2×10^6 cell/ml with a 5000 fold dilution of BIIC stock. Infections were carried out at 27° C. for 72 hours, harvested by centrifugation, and stored at −80° C. for purification.
Protein Purification. […] Flag-PRMT5/6His-MeP50 was eluted with 300 mM Imidazole in the same buffer. […] Reference: Wasilko, D. J. and S. E. Lee: “TIPS: titerless infected-cells preservation and scale-up” Bioprocess J., 5 (2006), pp. 29-32.
General Procedure for PRMT5/MEP50 Enzyme Assays on Peptide Substrates.
The assays were all performed in a buffer consisting of 20 mM Bicine (pH=7.6), 1 mM TCEP, 0.005% BSG, and 0.002% Tween20, prepared on the day of use. Compounds in 100% DMSO (1 ul) were spotted into a polypropylene 384-well V-bottom plates (Greiner) using a Platemate Plus outfitted with a 384-channel head (Thermo Scientific). DMSO (1 ul) was added to Columns 11, 12, 23, 24, rows A-H for the maximum signal control and 1 ul of SAH, a known product and inhibitor of PRMT5/MEP50, was added to columns 11, 12, 23, 24, rows I-P for the minimum signal control. A cocktail (40 ul) containing the PRMT5/MEP50 enzyme and the peptide was added by Multidrop Combi (Thermo-Fisher). The compounds were allowed to incubate with PRMT5/MEP50 for 30 min at 25 degrees Celsius, then a cocktail (10 ul) containing ^3H-SAM was added to initiate the reaction (final volume=51 ul). The final concentrations of the components were as follows: PRMT5/MEP50 was 4 nM, ^3H-SAM was 75 nM, peptide was 40 nM, SAH in the minimum signal control wells was 100 uM, and the DMSO concentration was 1%. The assays were stopped by the addition of non-radioactive SAM (10 ul) to a final concentration of 600 uM, which dilutes the ^3H-SAM to a level where its incorporation into the peptide substrate is no longer detectable. 50 ul of the reaction in the 384-well polypropylene plate was then transferred to a 384-well Flashplate and the biotinylated peptides were allowed to bind to the streptavidin surface for at least 1 hour before being washed three times with 0.1% Tween20 in a Biotek ELx405 plate washer. The plates were then read in a PerkinElmer TopCount plate reader to measure the quantity of ^3H-labeled peptide bound to the Flashplate surface, measured as disintegrations per minute (dpm) or alternatively, referred to as counts per minute (cpm).
[formula] Where dpm=disintegrations per minute, cmpd=signal in assay well, and min and max are the respective minimum and maximum signal controls.

PRMT5/MEP50, sequence (O14744 other isoform, or with tags, fused parts or gaps): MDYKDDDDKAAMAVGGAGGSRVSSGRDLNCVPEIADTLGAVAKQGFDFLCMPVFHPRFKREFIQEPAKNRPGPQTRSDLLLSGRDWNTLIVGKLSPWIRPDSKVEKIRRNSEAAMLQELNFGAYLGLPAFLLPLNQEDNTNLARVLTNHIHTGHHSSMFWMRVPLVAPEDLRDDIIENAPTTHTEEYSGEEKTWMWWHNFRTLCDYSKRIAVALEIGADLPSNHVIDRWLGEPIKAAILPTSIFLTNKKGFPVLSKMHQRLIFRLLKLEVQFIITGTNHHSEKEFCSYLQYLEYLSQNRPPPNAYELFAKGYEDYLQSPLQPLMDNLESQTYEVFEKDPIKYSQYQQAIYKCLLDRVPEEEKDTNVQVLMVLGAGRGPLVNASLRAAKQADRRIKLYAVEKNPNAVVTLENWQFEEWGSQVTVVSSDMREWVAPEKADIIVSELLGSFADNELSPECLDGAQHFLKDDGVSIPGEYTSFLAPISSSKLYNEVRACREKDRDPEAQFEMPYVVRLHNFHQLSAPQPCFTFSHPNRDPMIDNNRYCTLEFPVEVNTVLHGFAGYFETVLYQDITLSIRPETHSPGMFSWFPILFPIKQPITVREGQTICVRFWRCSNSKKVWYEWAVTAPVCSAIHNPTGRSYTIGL
PRMT5/MEP50, sequence (Q9BQA1 other isoform, or with tags, fused parts or gaps partner): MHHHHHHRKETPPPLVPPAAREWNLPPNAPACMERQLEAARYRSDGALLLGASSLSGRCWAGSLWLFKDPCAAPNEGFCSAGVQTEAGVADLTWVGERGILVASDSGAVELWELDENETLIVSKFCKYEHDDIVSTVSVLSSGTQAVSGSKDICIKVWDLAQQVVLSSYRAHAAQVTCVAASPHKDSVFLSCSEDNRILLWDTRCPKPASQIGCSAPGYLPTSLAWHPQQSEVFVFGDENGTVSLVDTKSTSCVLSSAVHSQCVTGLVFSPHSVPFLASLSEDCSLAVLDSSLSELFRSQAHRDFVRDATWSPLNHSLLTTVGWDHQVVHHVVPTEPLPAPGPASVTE

`CC(Oc1ccccc1S(C)(=O)=O)C(=O)NCC(O)CN1CCc2ccccc2C1` (centres unmarked) [Compound 114] and `CN(c1cccc(OCC(=O)NCC(O)CN2CCc3ccccc3C2)c1)S(C)(=O)=O` (centres unmarked) [Compound 142] fall in the same range of IC50: 0.101 to 1 µM for the first, 0.101 to 1 µM for the second.

First: O=C(COc1ccccc1-c1c[nH]cn1)NCC(O)CN1CCc2ccccc2C1 (centres unmarked) [Compound 115]
Second: O=C(COc1ccccc1-c1ncc[nH]1)NCC(O)CN1CCc2ccccc2C1 (centres unmarked) [Compound 137]
The IC50 of the first is higher: 10 to 50 µM for the first, 0.101 to 1 µM for the second. The second is the more potent here.

`O=C(COc1ccccc1C1CCNC1)NCC(O)CN1CCc2ccccc2C1` (centres unmarked) [Compound 116] and `O=C(COc1ccccc1C1CNC1)NCC(O)CN1CCc2ccccc2C1` (centres unmarked) [Compound 132] fall in the same range of IC50: 1 to 10 µM for the first, 1 to 10 µM for the second.

`Cn1cc2c(OCC(=O)NCC(O)CN3CCc4ccccc4C3)cccc2n1` (centres unmarked) [Compound 118] and `O=C(COc1cccc2ncc(=O)[nH]c12)NCC(O)CN1CCc2ccccc2C1` (centres unmarked) [Compound 129] fall in the same range of IC50: 0.101 to 1 µM for the first, 0.101 to 1 µM for the second.

`CN1CCc2cccc(OCC(=O)NCC(O)CN3CCc4ccccc4C3)c2C1` (centres unmarked) [Compound 120] and `CN1CCCc2c(OCC(=O)NCC(O)CN3CCc4ccccc4C3)cccc21` (centres unmarked) [Compound 151] fall in the same range of IC50: 0.101 to 1 µM for the first, 0.101 to 1 µM for the second.

Compared with `O=C(COc1cccc(NC2CCOCC2)n1)NCC(O)CN1CCc2ccccc2C1` (centres unmarked) [Compound 121], `CN1CCC(c2ccccc2OCC(=O)NCC(O)CN2CCc3ccccc3C2)CC1` (centres unmarked) [Compound 134] is lower in IC50: 1 to 10 µM for the first, 0.101 to 1 µM for the second. The second is the more potent here.

First: CC(=O)N1CCN(S(=O)(=O)c2ccccc2OCC(=O)NCC(O)CN2CCc3ccccc3C2)CC1 (centres unmarked) [Compound 122]
Second: CN1CCC(c2ccccc2OCC(=O)NCC(O)CN2CCc3ccccc3C2)C1 (centres unmarked) [Compound 136]
The IC50 of the first is lower: 0.101 to 1 µM for the first, 1 to 10 µM for the second. The first is the more potent here.

Compared with `O=C(COc1cccc2c1OCC(=O)N2)NCC(O)CN1CCc2ccccc2C1` (centres unmarked) [Compound 124], `O=C(COc1cccc2c1CCCN2)NCC(O)CN1CCc2ccccc2C1` (centres unmarked) [Compound 150] is lower in IC50: 1 to 10 µM for the first, 0.101 to 1 µM for the second. The second is the more potent here.

`O=C(COc1cccc2[nH]c(=O)cnc12)NCC(O)CN1CCc2ccccc2C1` (centres unmarked) [Compound 125] and `Nc1ncccc1OCC(=O)NCC(O)CN1CCc2ccccc2C1` (centres unmarked) [Compound 145] fall in the same range of IC50: 1 to 10 µM for the first, 1 to 10 µM for the second.

First: CN(C)c1ncccc1OCC(=O)NCC(O)CN1CCc2ccccc2C1 (centres unmarked) [Compound 127]
Second: CN(C)c1cncc(OCC(=O)NCC(O)CN2CCc3ccccc3C2)c1 (centres unmarked) [Compound 143]
The IC50 of the first is lower: 0.101 to 1 µM for the first, 1 to 10 µM for the second. The first is the more potent here.

`NS(=O)(=O)c1cccc(OCC(=O)NCC(O)CN2CCc3ccccc3C2)c1` (centres unmarked) [Compound 131] and `CS(=O)(=O)Nc1cccnc1OCC(=O)NCC(O)CN1CCc2ccccc2C1` (centres unmarked) [Compound 140] fall in the same range of IC50: 1 to 10 µM for the first, 1 to 10 µM for the second.

First: CN1CC(c2ccccc2OCC(=O)NCC(O)CN2CCc3ccccc3C2)C1 (centres unmarked) [Compound 135]
Second: Cn1ccnc1-c1ccccc1OCC(=O)NCC(O)CN1CCc2ccccc2C1 (centres unmarked) [Compound 138]
The IC50 of the first is higher: 1 to 10 µM for the first, 0.101 to 1 µM for the second. The second is the more potent here.

`CC(C)(C)OC(=O)Nc1ccccc1OCC(=O)NCC(O)CN1CCc2ccccc2C1` (centres unmarked) [Compound 141] and `O=C(COCc1cccnc1)NCC(O)CN1CCc2ccccc2C1` (centres unmarked) [Compound 152, N-(3-(3,4-dihydroisoquinolin-2(1H)-yl)-2-hydroxypropyl)-2-(pyridin-3-ylmethoxy)acetamide] fall in the same range of IC50: 1 to 10 µM for the first, 1 to 10 µM for the second.
